Molecular target: T1, CYP2C9 (Homo sapiens, UniProt P11712)
T1 construct: in the assay of CYP enzyme activity in human liver microsome; from tissue; host or cells: human liver microsome
Assay: Inhibition of CYP enzyme activity in human liver microsome, CYP2C9
Format: in vitro ADME
Settings: versus Poziotinib
Description: The results of the compound disclosed herein and the reference compound Poziotinib in the assay of CYP enzyme activity in human liver microsome were shown in the following table (Table 17).

T1 sequence (P11712 whole entry): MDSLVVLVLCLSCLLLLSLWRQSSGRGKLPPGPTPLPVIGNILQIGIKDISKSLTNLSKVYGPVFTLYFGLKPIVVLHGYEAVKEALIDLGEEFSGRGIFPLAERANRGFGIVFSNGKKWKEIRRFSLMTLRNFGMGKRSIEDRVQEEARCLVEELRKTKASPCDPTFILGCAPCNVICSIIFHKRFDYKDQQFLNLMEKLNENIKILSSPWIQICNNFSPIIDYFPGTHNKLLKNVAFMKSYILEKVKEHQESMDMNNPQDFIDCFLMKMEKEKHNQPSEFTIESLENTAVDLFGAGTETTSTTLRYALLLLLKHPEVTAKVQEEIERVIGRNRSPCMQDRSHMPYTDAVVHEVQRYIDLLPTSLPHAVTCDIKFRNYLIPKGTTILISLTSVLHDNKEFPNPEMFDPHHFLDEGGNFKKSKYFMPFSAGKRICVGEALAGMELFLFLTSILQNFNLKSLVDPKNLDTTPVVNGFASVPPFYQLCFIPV

## C=CC(=O)N1[C@@H]2CC[C@H]1C[C@H](Nc1cc3c(Nc4ccc(Cl)c(Cl)c4F)ncnc3cc1OC)C2 [Compound of formula (I)]
  activity on CYP2C9, times better than the reference compound: 2 times

Source: patent US20220242851A1, “CRYSTAL FORM AND SALT OF QUINAZOLINE COMPOUND AND PREPARATION METHOD THEREOF” (SHENZHEN JINRUI FOUNDATION BIOTECH CO., LTD, priority 2019, published 2022)
